pIC50: −log10 of the molar value. Active and inactive are the calls of the source. No cut-off for these calls is given here.
How the values were obtained:
DU-145 = assay: Growth inhibition of human DU145 cells after 48 hrs by SRB assay; format: functional; conditions: DU-145, 48 h
[1] = Inhibition of bovine brain tubulin polymerization preincubated for 15 mins followed by GTP addition measured after 20 mins by spectrophotometric method; parameters: species or system Bos taurus
NCI-H460 = assay: Growth inhibition of human NCI-H460 cells after 48 hrs by SRB assay; format: functional; conditions: NCI-H460, 48 h
SK-OV-3 = assay: Growth inhibition of human SKOV3 cells after 48 hrs by SRB assay; format: functional; conditions: SK-OV-3, 48 h
MCF7 [2] = assay: Induction of vascular disruption in human luc-GFP-mCherry-tagged MCF7 cells implanted in SCID-NOD mouse assessed as reduction in bioluminescence at 120 mg/kg, ip administered as single dose measured at 4 hrs post dose by luciferase reporter gene based imaging analysis relative to control; format: functional; parameters: scale not given: the % may be the effect or the level left
MCF7 [3] = assay: Induction of necrosis in human luc-GFP-mCherry-tagged MCF7 cells implanted in SCID-NOD mouse at 120 mg/kg, ip administered as single dose measured after 48 hrs by haematoxylin and eosin staining based microscopy; format: functional, organism-based
Bos taurus = species on record: Bos taurus; assay: Inhibition of [3H]colchicine binding to bovine brain tubulin at 5 uM after 10 mins by scintillation counting method relative to control
MCF7 [4] = assay: Induction of vascular disruption in human luc-GFP-mCherry-tagged MCF7 cells implanted in SCID-NOD mouse assessed as reduction in bioluminescence at 120 mg/kg, ip administered as single dose measured at 24 to 48 hrs post dose by luciferase reporter gene based imaging analysis; format: functional, organism-based

Structure (SMILES) | GI50 (DU-145) | pIC50 [1] | GI50 (NCI-H460) | GI50 (SK-OV-3) | Activity (MCF7 [2]) | Activity (MCF7 [3]) | inhibition (Bos taurus) | Activity (MCF7 [4])
COc1cc(C2=CCc3c2ccc(OC)c3OP(=O)(O)O)cc(OC)c1OC | 3340 nM | < 4.70 | 1500 nM | 334 nM |  |  |  | 
COc1ccc(/C=C\c2cc(OC)c(OC)c(OC)c2)cc1OP(=O)(O)O [FOSBRETABULIN] | 3.36 nM | < 4.70 | 2.82 nM | 1.9 nM | 80% | Active |  | 
COc1cc(/C2=C/CCCCc3c2ccc(OC)c3OC)cc(OC)c1OC | 448 nM | 5.35 | 395 nM | 512 nM |  |  | 31% | 
COc1ccc2c(c1)CCCC/C=C\2c1cc(OC)c(OC)c(OC)c1 | 570 nM | 5.52 | 431 nM | 400 nM |  |  | 29% | 
COc1cc(/C2=C/CCCCc3c2ccc(OC)c3OP(=O)([O-])[O-])cc(OC)c1OC.[Na+].[Na+] | 41 nM | < 4.70 | 26 nM | 36.6 nM | 80% | Active |  | Active
COc1ccc2c(c1)CC=C2c1cc(OC)c(OC)c(OC)c1 | 4660 nM | < 4.70 | 4020 nM | 6150 nM |  |  |  | 
COc1cc(C2=CCc3c2ccc(OC)c3OC)cc(OC)c1OC | 34600 nM | < 4.70 | 42200 nM | 9460 nM |  |  |  | 
COc1ccc2c(c1O)CC=C2c1cc(OC)c(OC)c(OC)c1 | 362 nM | 4.96 | 388 nM | 704 nM |  |  | 17% | 
COc1ccc2c(c1O)CCCC/C=C\2c1cc(OC)c(OC)c(OC)c1 | 105 nM | 5.92 | 107 nM | 81.1 nM |  |  | 78% | 

Reference: ChEMBL document CHEMBL4190184, “Synthesis and Biological Evaluation of Benzocyclooctene-based and Indene-based Anticancer Agents that Function as Inhibitors of Tubulin Polymerization” (Medchemcomm, 2016)
